Measured values from publication PMC6982702, “Extensive Structure Modification on Luteolin-Cinnamic Acid Conjugates Leading to BACE1 Inhibitors with Optimal Pharmacological Properties” (Molecules, 2019).

What was measured:
[1] = test system: Aβ-38, Aβ-40, Aβ-42 in HEK293 cells stably overexpressing human APP695; experiment: Inhibition of Aβ production in APP overexpressed cells (V-Plex Aβ Peptide Panel immunoassay); format: cell-based; details: for Aβ-42 levels / Aβ levels: DMSO = 100%; for Aβ levels: higher concentrations (10, 25, and 50 µM), 23 h
Protocol: To assess the cellular BACE1 inhibitory activity of the conjugates, 7a–d, 7i, and 7k were incubated in APP overexpressing HEK293 cells and their inhibition on the three main Aβ species Aβ-38, Aβ-40, and Aβ-42—the main amyloidogenic peptides produced by BACE1 cleavage of APP peptide—was measured by an ELISA-like immunoassay method. Aβ levels were normalized to the protein concentration in the lysate in order to rule out differences in total cell number per well of the culture plate. Additionally, the normalized Aβ level was set to 100% for the DMSO-treated control.
HEK293 cells stably overexpressing human APP695 were plated in a poly-D-lysine-coated 96-well plates and grown to a density of 80–90%. Compounds were dissolved in DMSO to make a 10 mM stock solution and diluted in DMEM complete medium to the final concentrations: 0.1, 1.0, 5.0, 10.0, 25.0, and 50.0 µM. DMSO was used at a 1:200 dilution as a negative control and a commercially available BACE1 inhibitor (C3, also known as BACE inhibitor IV) as a positive control. After 23 h of incubation, the cell supernatants were directly used for measurement in the V-Plex Aβ Peptide Panel 1 (6E10) Kit from Meso Scale Diagnostics (Rockville, MD, USA) for measuring Aβ38, −40, and −42 simultaneously. Cells were washed with PBS and lysed in Triton X100 lysis buffer for subsequent protein concentration (BCA) measurement.

Renin = target: T1, Renin (Homo sapiens, UniProt P00797); experiment: Enzyme selectivity: renin inhibition; format: biochemical
T1 sequence (P00797 67-406): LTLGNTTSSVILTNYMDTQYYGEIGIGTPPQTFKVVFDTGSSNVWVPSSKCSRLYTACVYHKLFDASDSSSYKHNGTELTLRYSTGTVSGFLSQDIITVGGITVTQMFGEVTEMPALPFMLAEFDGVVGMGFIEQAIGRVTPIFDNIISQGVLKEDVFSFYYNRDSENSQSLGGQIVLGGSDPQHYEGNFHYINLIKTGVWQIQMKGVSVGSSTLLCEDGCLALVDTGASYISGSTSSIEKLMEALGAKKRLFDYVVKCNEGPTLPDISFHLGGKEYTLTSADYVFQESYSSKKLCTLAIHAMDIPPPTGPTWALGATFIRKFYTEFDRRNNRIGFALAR
Text: (§1) As BACE1 is a member of aspartyl protease family, its selective inhibition over other closely related proteases is required to avoid possible severe side effects.

MTT cytotoxicity assay = format: cell-based; details: human, 24 h exposure
Protocol: It is crucial for the BACE1 inhibitors to exert their activities at sub-toxic concentration, and thus their cytotoxicity was assessed in HEK293 cells by 3-[4,5-dimethylthiazol-2-yl]-2,5-diphenyl-tetrazolium bromide (MTT) assays (Table 5). […] Unfortunately, there was no obvious relationship between the structures and their cytotoxicity.
The cytotoxicity was examined by using 3-[4,5-dimethylthiazol-2-yl]-2,5-diphenyl-tetrazolium bromide (MTT) assay. HEK293T cells were seeded with complete DMEM into 96-well plates ([…], 100 µL/well), incubated at 37 °C in a humidified atmosphere with 5% CO2 for 24 h. All the compounds were diluted with the phenol red-free DMEM at a specific concentration. After 24 h of exposure to different concentrations of compound, the supernatant was removed and then 20% (v/v) MTT (5 mg/mL) diluted with fresh culture medium was added into each well and incubated for 4 h. Cells were lysed with 100 μL dimethyl sulfoxide (DMSO) and shaken for 10 min at room temperature. The absorbance in each well was detected at a wavelength of 490 nm using a Universal Microplate Reader (ELX 800 lv, BIO-TEK Instruments, Inc., Winooski, VT, USA).

BACE2 = target: T2, BACE2 (Homo sapiens, UniProt Q9Y5Z0); experiment: Enzyme selectivity: BACE2 inhibition; format: biochemical
T2 sequence (Q9Y5Z0 63-518): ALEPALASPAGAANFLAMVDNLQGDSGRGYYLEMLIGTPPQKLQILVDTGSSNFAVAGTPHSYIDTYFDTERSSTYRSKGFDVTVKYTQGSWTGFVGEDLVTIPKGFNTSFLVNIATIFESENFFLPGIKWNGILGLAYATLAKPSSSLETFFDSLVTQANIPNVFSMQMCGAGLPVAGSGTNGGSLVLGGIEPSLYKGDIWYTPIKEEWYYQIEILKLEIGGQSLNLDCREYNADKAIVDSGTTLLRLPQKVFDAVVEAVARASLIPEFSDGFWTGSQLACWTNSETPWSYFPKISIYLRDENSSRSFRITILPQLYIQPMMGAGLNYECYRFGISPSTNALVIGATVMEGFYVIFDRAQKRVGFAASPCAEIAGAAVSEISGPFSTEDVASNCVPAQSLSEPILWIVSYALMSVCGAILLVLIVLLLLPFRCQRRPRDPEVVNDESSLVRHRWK
Text: as §1

BACE1 [2] = target: T3, BACE1 (Homo sapiens, UniProt P56817); experiment: In vitro BACE1 FRET enzyme assay; format: biochemical; details: for inhibition at 10 µM: read-out: Inhibition Rate at 10 μM (%); for selectivity on BACE1 over BACE2 and renin: from IC50 values of Table 6
T3 construct: purchased PanVera Co. (Invitrogen, USA)
T3 sequence (P56817 46-501): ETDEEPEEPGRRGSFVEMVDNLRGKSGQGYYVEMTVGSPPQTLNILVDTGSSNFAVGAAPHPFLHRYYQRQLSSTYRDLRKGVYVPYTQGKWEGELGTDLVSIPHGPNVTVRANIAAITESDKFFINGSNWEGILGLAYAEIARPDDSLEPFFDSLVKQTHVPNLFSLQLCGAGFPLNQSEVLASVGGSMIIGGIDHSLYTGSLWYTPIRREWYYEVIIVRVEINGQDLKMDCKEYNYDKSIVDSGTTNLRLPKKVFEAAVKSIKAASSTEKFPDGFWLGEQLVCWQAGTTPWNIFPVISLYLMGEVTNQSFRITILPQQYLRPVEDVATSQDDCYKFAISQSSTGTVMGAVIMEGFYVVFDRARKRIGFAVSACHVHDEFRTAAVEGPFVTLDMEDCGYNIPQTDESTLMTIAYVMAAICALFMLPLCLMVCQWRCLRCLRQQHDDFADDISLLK
Protocol: The BACE1 FRET assay kit was purchased from the PanVera Co. (Invitrogen, USA). The assay was carried out according to the supplied manual with modifications. […] The fluorescence intensity was measured with a TECAN infinite 200 microplate reader for 60 min at 25 °C in the dark. […] The percent inhibition (%) was obtained by the following equation: Inhibition % = (1 −SS/SC) × 100%, where SC is the slope of fluorescence change of the control (enzyme, buffer, and substrate) during 60 min, and SS is the slope of fluorescence change of the tested samples (enzyme, sample solution, and substrate) during 60 min of measurement. IC50 values were calculated from the nonlinear curve fitting of percentage inhibition against inhibitor concentration using Prism 3.0 software (GraphPad Software, San Diego, CA, USA).

BACE1 [3] = target: T3, BACE1; experiment: Kinetic analysis of BACE1 inhibition (Dixon plot); format: biochemical; details: for Ki: BACE1 substrate 250, 500, 750 nM
Protocol: The Dixon plot was used to determine the kinetics of 4l, 7c, and 7k inhibiting BACE1.
The Dixon plot is a graphical method (plot of 1/enzyme velocity (1/V) against inhibitor concentration (I)) for determination of the type of enzyme inhibition, which was used to determine the dissociation or inhibition constant (Ki) for the enzyme inhibitor complex. The Dixon plots for BACE1 inhibition were obtained in the presence of various concentrations of BACE1 substrate (250, 500, 750 nM) and the concentrations of 4l, 7c, and 7k as follows: 0.1 µM, 0.5 µM, 1.0 µM. In this way, the inhibition constants (Ki) of 4e were determined by interpretation of Dixon plots, where the value of the x-axis represents −Ki when 1/V = 0. […]
The Dixon plot is a graphical method [plot of 1/enzyme velocity (1/V) against inhibitor
concentration (I)] for determination of the type of enzyme inhibition and was used to determine the
dissociation or inhibition constant (Ki) for the enzyme inhibitor complex (Cornish-Bowden, 1974).
The Dixon plots for BACE1 inhibition were obtained in the presence of various concentrations of […]
BACE1 substrate (250, 500, 750 nM) and the concentrations of 4l, 7c and 7k as follows: 0.1 µM, 0.5 µM,
1.0µM. In this way, the inhibition constants (Ki) of 4e were determined by in terpretation of Dixon
plots, w here t he value of the X -axis represents -Ki when 1/V=0.
Figure 3. Kinetic analysis of 4l.
Figure 4. Kinetic anal ysis of 7k. […]
The BACE1 FRET assay kit was purchased from the PanVera Co. (Invitroge, USA). The assay
was carried out according to the supplied manual with modifications. Briefly, assays were
performed in triplicate in 384-well black plates with a mixture of 5 μL of BACE1 (1.0 U/ml), 5 μL of
the substrate (750 nM, Rh-[…]- Quencherin 50 mM, ammonium bicarbonate), and 5 μL of
compound dissolved in 10% DMSO. The fluorescence intensity was measured with a TECAN
infinite 200 microplate reader for 60 min at 25 °C in the dark. The mixture was irradiated at 544 nm
and the emission intensity recorded at 590 nm. The percent inhibition (%) was obtained by the
following equation: Inhibition % = (1-SS/SC) × 100%, where SC is the slope of fluorescence change of
the control (enzyme, buffer, and substrate) during 60 min, and SS is the slope of fluorescence change
of the tested samples (enzyme, sample solution, and substrate) during 60 min of measurement. […]

[4] = HEK293 cells (method text: HEK293T)
[5] = BACE1 FRET assay, 10 μM compound

| Structure (SMILES) | Aβ levels [1] | IC50 (Renin) [µM] | IC50 at 24 h (MTT cytotoxicity assay; [4]) [µM] | IC50 (BACE2) [µM] | IC50 (BACE1 [2]; BACE1 FRET assay) [µM] | inhibition at 10 µM (BACE1 [2]; [5]) [%] | mode of BACE1 inhibition (BACE1 [3]) | Ki (BACE1 [3]) [µM] | other results |
| --- | --- | --- | --- | --- | --- | --- | --- | --- | --- |
| O=C(/C=C/c1cccnc1)OCCOc1cc(O)c2c(=O)cc(-c3ccc(O)c(O)c3)oc2c1 [Compound 7k, (E)-2-((2-(3,4-dihydroxyphenyl)-5-hydroxy-4-oxo-4H-chromen-7-yl)oxy)ethyl 3-(pyridin-3-yl)acrylate] | did not reduce Aβ levels | > 100 | > 100 | > 100 | 0.15 | 54.4 ± 3.5 | mix-competitive mode | 0.32 | Aβ-42 levels [1]: increased Aβ-42 levels; enhancement of BACE1 inhibitory activity compared with the flavone segment 1 or conjugate 3 (BACE1 [2]; from IC50): ~10 fold; selectivity on BACE1 over BACE2 and renin (BACE1 [2]): 2–3 orders of magnitude |
| O=c1cc(-c2ccc(O)c(O)c2)oc2cc(O)cc(O)c12 [Compound 1, luteolin] | dose-dependently reduced Aβ levels | – | 39.8 | – | – | 68.6 ± 8.9 | – | – | Inhibition Rate at 10 μM (%) (BACE1 [2]; BACE1 FRET assay, 10 μM compound, 10 µM): 64.8 ± 6.0% |
| O=C(/C=C/c1ccc(O)cc1)NCCOc1cc(O)c2c(=O)cc(-c3ccc(O)c(O)c3)oc2c1 [Compound 8] | – | 25.4 | > 100 | > 100 | 4.15 ± 1.97 | 59.5 ± 4.4 | – | – | – |
| O=C(/C=C/c1cccc(O)c1)OCCOc1cc(O)c2c(=O)cc(-c3ccc(O)c(O)c3)oc2c1 [Compound 7c] | – | > 100 | – | > 100 | 1.44 ± 0.18 | 66.7 ± 8.3 | non-competitive inhibitor | 1.2 | Aβ-42 level ([1]; 25 µM): obvious inhibition; IC50 at 24 h (MTT cytotoxicity assay; HEK293 cells (method text: HEK293T cells)): 90 µM; selectivity on BACE1 over BACE2 and renin (BACE1 [2]): 2–3 orders of magnitude |
| O=C(OCCOc1cc(O)c2c(=O)cc(-c3ccc(O)c(O)c3)oc2c1)c1ccc(O)cc1 [Compound 7o, 2-((2-(3,4-dihydroxyphenyl)-5-hydroxy-4-oxo-4H-chromen-7-yl)oxy)ethyl 4-hydroxybenzoate] | – | – | 10.3 | – | – | 51.9 ± 1.9 | – | – | – |
| O=C(/C=C/c1ccc(O)cc1)OCCOc1cc(O)c2c(=O)cc(-c3ccccc3)oc2c1 [Compound 6] | – | – | 28.3 | – | – | 20.5 ± 4.4 | – | – | – |
| CN(C)c1ccc(/C=C/C(=O)OCCOc2cc(O)c3c(=O)cc(-c4ccc(O)c(O)c4)oc3c2)cc1 [Compound 7h, (E)-2-((2-(3,4-dihydroxyphenyl)-5-hydroxy-4-oxo-4H-chromen-7-yl)oxy)ethyl 3-(4-(dimethylamino)phenyl)acrylate] | – | – | > 100 | – | 6.58 ± 1.16 | 53.8 ± 4.4 | – | – | – |
| CC(=O)Oc1ccc(/C=C/C(=O)OCCOc2cc(O)c3c(=O)cc(-c4ccc(O)c(O)c4)oc3c2)cc1 [Compound 7q, (E)-2-((2-(3,4-dihydroxyphenyl)-5-hydroxy-4-oxo-4H-chromen-7-yl)oxy)ethyl 3-(4-acetoxyphenyl)acrylate] | – | – | > 100 | – | – | 25.7 ± 4.6 | – | – | – |
| COc1ccc(/C=C/C(=O)OCCOc2cc(O)c3c(=O)cc(-c4ccc(O)c(O)c4)oc3c2)cc1 [Compound 7i, (E)-2-((2-(3,4-dihydroxyphenyl)-5-hydroxy-4-oxo-4H-chromen-7-yl)oxy)ethyl 3-(4-methoxyphenyl)acrylate] | did not reduce Aβ levels | – | 3.94 | – | – | 28.9 ± 4.4 | – | – | Aβ-42 levels [1]: increased Aβ-42 levels |
| O=C(/C=C/c1ccc(O)cc1)OCCOc1cccc2c(=O)cc(-c3ccc(O)c(O)c3)oc12 [Compound 4l] | – | – | – | – | 2.47 ± 0.17 | 58.4 ± 10.2 | mix-competitive mode | 0.8 | – |
